Test results as given in article PMC12851022, “Targeting the Spliceosomal Protein USP39 Through Allosteric Ligands and PROTAC‐Induced Degradation” (Angewandte Chemie (International Ed. in English), 2025).

Key:
USP39_T2 [1] = biological target: T1, USP39_T2 (Homo sapiens, UniProt Q53GS9); assay: Competitive FP assay, tracer USP39_B1-FITC; assay type: binding; details: for Binding in competitive FP screening normalized to USP39_B1: 5 µM compound concentration; for IC50: tracer USP39_B1-FITC, protein USP39_T2
T1 construct: USP39_T2 (ZNF domain only); made in house
T1 sequence (Q53GS9 103-200 limits assumed): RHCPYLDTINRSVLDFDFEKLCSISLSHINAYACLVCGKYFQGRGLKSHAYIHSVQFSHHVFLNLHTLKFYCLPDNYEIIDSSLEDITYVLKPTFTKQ
Excerpt: The compound label is taken from plot legend entries such as 'WT_USP39_B1'. / Panel e: the picture prints no compound label. WT, M1 and M2 are protein variants (targets), not substances.
To systematically investigate structure–activity relationships, we synthesized a series of derivatives by modifying the phenyl ring, either by substituting the chlorine atom with other halogens or varying the substitution pattern (Figure SI2B).
Figure 3 Design and in vitro characterization of USP39‐targeting PROTACs. a) Synthetic strategy for PROTAC synthesis. […] USP39_B1‐FITC served as the tracer, while USP39_T2 acted as the protein. The results were obtained from two independent experiments, each performed in triplicates and are presented as mean ± SD. e) Predicted results from AI‐Based DMPK analysis. MW: Molecular weight; HBA: H‐Bond acceptors; HBD: H‐Bond donors; Con_LogP: Consensus LogP; RotB: Rotatable Bonds; TPSA: Topological polar surface area; ESOL_LogS: predicted aqueous solubility (Log10 mol L^−1); GI: Gastrointestinal absorption; BBB: Blood–brain barrier. A comprehensive overview of all PROTACs and related data is available in Table SI5 of the Supporting Information.

[2] = biological target: His-tagged USP39 and GST-tagged VHL (Homo sapiens, UniProt P40337+Q53GS9); assay: Alpha assay of ternary complex formation; assay type: binding
Sequence of His-tagged USP39 and GST-tagged VHL (Q53GS9 whole entry): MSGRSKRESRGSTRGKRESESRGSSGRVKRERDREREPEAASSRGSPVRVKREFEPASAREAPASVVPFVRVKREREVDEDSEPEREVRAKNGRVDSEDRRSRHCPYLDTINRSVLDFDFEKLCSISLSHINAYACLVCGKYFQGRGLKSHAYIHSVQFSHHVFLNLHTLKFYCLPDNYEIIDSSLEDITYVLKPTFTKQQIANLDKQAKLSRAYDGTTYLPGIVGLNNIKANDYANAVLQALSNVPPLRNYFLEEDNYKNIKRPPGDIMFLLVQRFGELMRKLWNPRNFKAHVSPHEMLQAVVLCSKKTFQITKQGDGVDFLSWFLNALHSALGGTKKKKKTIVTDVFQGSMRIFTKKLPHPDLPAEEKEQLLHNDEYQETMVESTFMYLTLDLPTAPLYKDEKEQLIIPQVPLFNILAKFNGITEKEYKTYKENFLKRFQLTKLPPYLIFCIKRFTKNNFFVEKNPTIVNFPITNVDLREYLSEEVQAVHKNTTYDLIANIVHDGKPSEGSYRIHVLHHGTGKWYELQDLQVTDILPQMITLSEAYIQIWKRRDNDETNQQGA
Sequence of His-tagged USP39 and GST-tagged VHL (P40337 whole entry): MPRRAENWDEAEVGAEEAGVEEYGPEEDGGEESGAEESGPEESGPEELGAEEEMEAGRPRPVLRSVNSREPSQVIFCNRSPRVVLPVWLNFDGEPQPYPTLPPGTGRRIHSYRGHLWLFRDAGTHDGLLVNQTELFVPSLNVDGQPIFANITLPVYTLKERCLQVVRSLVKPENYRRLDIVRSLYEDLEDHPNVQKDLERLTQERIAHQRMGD

USP39_T2 [3] = biological target: T1, USP39_T2; assay: Isothermal titration calorimetry (ITC); assay type: binding
FKBP12^F36V-USP39 [4] = biological target: T2, FKBP12^F36V-USP39 (Homo sapiens, UniProt P62942+Q96SW2, F37V); assay: dTAG system degradation of FKBP12^F36V-USP39; assay type: cell-based
T2 construct: expressed in transfected cells
T2 sequence (P62942 whole entry F37V): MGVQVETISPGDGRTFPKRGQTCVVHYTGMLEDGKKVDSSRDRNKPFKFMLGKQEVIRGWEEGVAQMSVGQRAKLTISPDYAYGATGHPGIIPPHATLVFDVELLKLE
T2 sequence (Q96SW2 whole entry): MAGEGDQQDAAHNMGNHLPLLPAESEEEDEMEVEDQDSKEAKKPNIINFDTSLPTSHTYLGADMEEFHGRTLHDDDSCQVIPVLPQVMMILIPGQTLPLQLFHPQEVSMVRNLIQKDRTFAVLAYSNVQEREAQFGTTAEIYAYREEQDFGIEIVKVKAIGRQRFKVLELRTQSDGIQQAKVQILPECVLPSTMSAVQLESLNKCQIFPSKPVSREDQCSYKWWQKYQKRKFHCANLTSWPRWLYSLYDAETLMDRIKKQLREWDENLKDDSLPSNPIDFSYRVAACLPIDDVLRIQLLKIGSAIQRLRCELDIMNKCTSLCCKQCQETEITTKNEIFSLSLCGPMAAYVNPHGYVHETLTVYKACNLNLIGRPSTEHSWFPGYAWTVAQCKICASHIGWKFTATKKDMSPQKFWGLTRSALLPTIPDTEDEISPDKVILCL
Excerpt: (§1) To investigate whether USP39 can be degraded through the ubiquitin‐proteasome system, we utilized the dTAG system by fusing FKBP12^F36V to the N‐terminus of USP39 (Figure SI1A).^[ [22] ^]

FKBP12^F36V-USP39 [5] = biological target: T3, FKBP12^F36V-USP39 (Homo sapiens, UniProt, F37V); assay: dTAG system degradation of FKBP12^F36V-USP39; assay type: cell-based
T3 construct: expressed in transfected cells
T3 sequence (P62942 whole entry F37V): as the sequence (P62942 whole entry F37V) above
T3 sequence (Q96SW2 whole entry, further chain): as the sequence (Q96SW2 whole entry) above
Excerpt: as §1

CCOC(=O)c1csc(Nc2ccccc2Cl)n1 [C4]
Binding in competitive FP screening normalized to USP39_B1 (USP39_T2 [1]): failed to show measurable binding

CCOC(=O)c1csc(Nc2cccc(F)c2)n1 [USP39_B3]
Binding in competitive FP screening normalized to USP39_B1 (USP39_T2 [1]): significantly improved binding affinity
IC50 (USP39_T2 [1]): 1180 nM

CCOC(=O)c1csc(Nc2ccc(Cl)cc2)n1 [USP39_B1]
Inhibitory effect in competitive FP assay (USP39_T2 [1]; at 50 µM, USP39_T2, tracer USP39_B1-FITC): weak inhibitory effect
IC50 (USP39_T2 [1]): > 50000 nM
Kd of ternary complex formation (Alpha assay) [2]: no clear interaction was observed
Kd by ITC (USP39_T2 [3]): did not yield a clear binding isotherm

CC[C@H](C(=O)N1CCCC[C@H]1C(=O)O[C@H](CCc1ccc(OC)c(OC)c1)c1ccccc1OCC(=O)NCCCCCCOc1cccc2c1C(=O)N(C1CCC(=O)NC1=O)C2=O)c1cc(OC)c(OC)c(OC)c1 (stereo partly drawn) [dTAG13]
Time to degradation of FKBP12^F36V-USP39 (FKBP12^F36V-USP39 [4]): ≤ 24 h
Effect on endogenous USP39 levels (FKBP12^F36V-USP39 [5]): without affecting
